Measured values reported in PMC9866588, “Novel 7-Chloro-4-aminoquinoline-benzimidazole Hybrids as Inhibitors of Cancer Cells Growth: Synthesis, Antiproliferative Activity, in Silico ADME Predictions, and Docking” (Molecules, 2023).

What was measured:
[1] = tested on: MDCK1 (Madine–Darby canine kidney) cells; test: MTT antiproliferative assay, MDCK1; assay type: cell-based; details: mean ± SD of three independent experiments
Protocol: (§1) The growth inhibition activity was assessed according to the slightly modified procedure performed at the National Cancer Institute, Developmental Therapeutics Program.
(§2) The examined compounds were dissolved in DMSO (1 × 10^−2 M). The experiments were carried out on seven human tumor cell lines and a normal cell line. The following cell lines were used: HeLa (human cervical adenocarcinoma; purchased from ATCC), CaCo-2 (human colorectal adenocarcinoma), MCF-7 (human breast adenocarcinoma), CCRF-CEM (human acute lymphoblastic leukemia), Hut78 (T-cell lymphoma), THP-1 (acute monocytic leukemia), Burkitt lymphoma (Raji), and MDCK1 (Madine–Darby canine kidney). The MDCK1 cells were used between 24 and 26 passages.
(§3) The adherent cells were cultured in Dulbecco’s modified Eagle medium—DMEM (Gibco, Termo Fisher Scientific Inc., Leicestershire, England, UK), supplemented with 10% heat-inactivated fetal bovine serum (FBS, Gibco, Termo Fisher Scientific Inc., Leicestershire, England, UK), 2 mM glutamine, and 100U/0.1mg penicillin/streptomycin. The cells in suspension were cultured in RPMI 1640 (Gibco, Termo Fisher Scientific Inc., Leicestershire, England, UK) medium, supplemented with 10% FBS (Gibco, Termo Fisher Scientific Inc., Leicestershire, England, UK), 2 mM glutamine, 1 mM sodium pyruvate, and 10 mM HEPES. The cells were grown in a humidified atmosphere under the conditions of 37 °C/5% of CO2 gas in the CO2 incubator (IGO 150 CELLlife^TM, JOUAN, Thermo Fisher Scientific, Waltham, MA, USA).
(§4) The adherent cells (HeLa, CaCo-2, MCF-7, and MDCK-1) were plated in 96-well flat bottom plates (Greiner, Frickenhausen, Austria) at a concentration of 2 × 10^4 cells/mL. The suspension cells (Raji, THP-1, CCRF-CEM and Hut78) were plated in 96-well microtiter plates (Sarstead, Newton, NC, USA) at a concentration of 1 × 10^5 cells/mL. Twenty-four hours later, the cells were treated with test agents in […] and incubated for a further 72 h. The working dilutions were freshly prepared on the day of testing. The solvent was also tested for eventual inhibitory activity by adjusting its concentration to be the same as in the working concentrations. After 72 h of incubation, the cell growth rate was evaluated by performing the MTT assay, which detects dehydrogenase activity in viable cells. For this purpose, upon completion of the incubation period, the growth medium was discarded and 50 μL of MTT was added to each well at a concentration of 5 mg/mL. After four hours of incubation at 37 °C, the water insoluble MTT-formazan crystals were dissolved in 150 μL of dimethyl-sulfoxide (DMSO) for the adherent cells and in 10% SDS with 0.01 mol/L HCl for the cells grown in suspension. The absorbance (OD, optical density) was measured on a microplate reader (iMark, BIO RAD, Hercules, CA, USA) at 595 nm.
(§5) The percentage of live cells was calculated as follows: % = OD (sample) − OD (background)/OD (control) − OD (background) × 100.
(§6) The optical density (OD) of the background for the adherent cells is the OD of the MTT solution and DMSO; the OD (background) for the suspension cells is the OD of the culture medium with MTT and 10% SDS with 0.01 mol/L HCl; the OD (control) is the OD of the cells grown without the tested compounds.
(§7) The calculation of the GI50 value curves and QC analysis was performed using the Excel tools and GraphPadPrism software (La Jolla, CA, USA), v. 5.03. Briefly, individual concentration effect curves are generated by plotting the logarithm of the concentration of the tested compounds (X) vs. the corresponding percent inhibition values (Y) using the least squares fit. The best-fit GI50 values are calculated using log (inhibitor) versus normalized response—variable slope equation, where Y Ľ 100/(1 ţ 10 ((LogIC50 _ X) × HillSlope)). The QC criteria parameters (Z0, S:B, R2, HillSlope) were checked for every GI50 curve.

[2] = tested on: CaCo-2 (human colorectal adenocarcinoma) cells; test: MTT antiproliferative assay, CaCo-2; assay type: cell-based; details: 72 h, mean ± SD of three independent experiments
Protocol: as §1, §2, §3, §4, §5, §6, §7

[3] = tested on: THP-1 (acute monocytic leukemia) cells; test: MTT antiproliferative assay, THP-1; assay type: cell-based, human
Protocol: as §1, §2, §3, §4, §5, §6, §7

[4] = MTT antiproliferative assay, ranges stated over several cell lines; assay type: cell-based; details: human (tumor cell lines) and dog (MDCK1); abstract, range over cell lines; read-out: GI50 range (strong cytotoxic activity)
Protocol: as §1, §2, §3, §4, §5, §6, §7

[5] = tested on: normal (MDCK1) and tumor cell lines; test: as above; assay type: cell-based; details: MDCK1; range over tumor cell lines; read-out: GI50 range, tumor cell lines
Protocol: as §1, §2, §3, §4, §5, §6, §7

HuT78 cells = test: Mitochondrial membrane potential (∆Ψm), TMRE flow cytometry; assay type: cell-based, human; details: HuT78, 5 μM, 24 h
Protocol: Changes in the (∆Ψm) were measured using TMRE (tetramethylrhodamine, ethyl ester and perchlorate) dye. In brief, the tested cells (HuT 78) were plated in 6-well plates at a concentration of 5 × 10^5 cells per well and treated with 5 μM of the compounds 5d and 12d. After 24 h of treatment, the cells were collected, centrifuged for 6 min at 1100 rpm, and stained with 200 nM of TMRE dye according to the kit protocol (TMRE Mitochondrial Membrane Potential Assay Kit, abcam, Cambridge, UK). The positive control cells were treated with 20 μM FCCP (carbonyl cyanide-p-trifluoromethoxyphenylhydrazone) for 10 min. The cells were analyzed by flow cytometry (BD FACSCalibur, Becton Dickinson, San Jose, CA, USA) and FlowJo software (FlowJo, LLC, Ashland, OR, USA).

## Clc1ccc2c(Nc3cccc(-c4nc5ccccc5[nH]4)c3)ccnc2c1 [Compound 5d, N-(3-(1H-benzo[d]imidazol-2-yl)phenyl)-7-chloroquinolin-4-amine]
[1]; 72 h
  GI50: 20.4 ± 2.8 µM
[1]; Canis lupus familiaris, MDCK1, 72 h
  GI50: 11.4 to 20.4 µM
[2]
  GI50: 1 ± 0.1 µM
[3]; Homo sapiens, THP-1, 72 h, MTT, mean ± SD of three independent experiments, read-out: GI50 THP1
  GI50: 0.6 ± 0.3 µM
[3]; with respect to MDCK1 cells
  tumor selectivity index (SI) THP1: 34
[4]
  GI50 at 72 h: 0.4 to 8 µM
[5]
  GI50: 0.4 to 15.6 µM
HuT78 cells
  cells with mitochondrial membrane disruption / change in ∆Ψm: 23.9%
